Measured values taken from patent publication US20200339691A1, “PROTEINACEOUS MOLECULES AND USES THEREFOR” (priority 2018, published 2020).
Where a SMILES comes first, the peptide text is derived from it. The star is where a group is joined. Myristoyl = CCCCCCCCCCCCCC(=O)*

Assays:
[1] = system: CD44^hiCD24^lo CSCs in MDA-MB-231 cells; experiment: FACS analysis of CD44^hiCD24^lo cancer stem cells in MDA-MB-231 cells treated with P1 analogues; type: cell-based, human; details: 50 μM peptide, 48 hours; for CD44^hiCD24^lo CSCs (%) / COI, Live Single CD44^hiCD24^lo CSCs (Cell Count): n = 1; for Average Inhibition of CSCs (%) / CD44^hiCD24^lo CSCs (%) Repeat 1 / CD44^hiCD24^lo CSCs (%) Repeat 2 / CD44^hiCD24^lo CSCs (%) Repeat 3: n = 3
Method: Analogues of P1 (Table 6) were designed and synthesized in accordance with the procedure of Example 5. The ability of these analogues to inhibit cancer stem cells was determined using FACS analysis on MDA-MB-231 cells, which constitutively contain approximately 90% CD44^hiCD24^lo cancer stem cells, treated with the peptides.
(§1) Non-adherent cells were removed during the washing steps.

[2] = system: MDA-MB-231 cells; type: cell-based, human; details: 50 μM peptide, 48 hours, n = 1;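 on COI, Live Single Cells (Cell Count): live means Hoechst-negative events among single cells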
Text: as §1

| SMILES | Inhibition of CSCs (%) Repeat 1 [1] [%] | Inhibition of CSCs (%) Repeat 2 [1] [%] | Inhibition of CSCs (%) Repeat 3 [1] [%] | CD44^hiCD24^lo CSCs (%) [1] [%] | COI, Live Single CD44^hiCD24^lo CSCs (Cell Count) [1] | Average Inhibition of CSCs (%) [1] [%] | CD44^hiCD24^lo CSCs (%) Repeat 1 [1] [%] | CD44^hiCD24^lo CSCs (%) Repeat 2 [1] [%] | CD44^hiCD24^lo CSCs (%) Repeat 3 [1] [%] | COI (Cell Count) [2] | COI, Live Single Cells (Cell Count) [2] | COI, Single (Cell Count) [2] | Total Cell Count [2] |
| --- | --- | --- | --- | --- | --- | --- | --- | --- | --- | --- | --- | --- | --- |
| CCCCCCCCCCCCCC(=O)N[C@@H](CC(C)C)C(=O)N[C@H](C(=O)N[C@@H](CCCCN)C(=O)N[C@H](C(=O)N[C@@H](Cc1ccccc1)C(=O)N[C@@H](CCCNC(=N)N)C(=O)N[C@@H](CC(C)C)C(=O)N[C@@H](CCCNC(=N)N)C(=O)N[C@@H](CCCCN)C(=O)NCC(=O)N[C@@H](CCCNC(=N)N)C(=O)N[C@@H](CCSC)C(=O)N[C@@H](CCSC)C(=O)N[C@@H](CC(=O)O)C(=O)N[C@H](C(=O)N[C@@H](CCCCN)C(=O)N[C@@H](CCCCN)C(N)=O)C(C)C)[C@@H](C)CC)[C@@H](C)O [Peptide 2853808, Myristoyl-LTKIFRLRKGRMMDVKK-NH2] (Myristoyl-LTKIFRLRKGRMMDVKK-NH2) | 87.54 | 84.31 | 84.48 | 10.74 | 26 | 85.44 | 11.17 | 14.07 | 13.92 | 323 | 242 | 279 | 1192 |
| CCCCCCCCCCCCCC(=O)N[C@@H](CC(C)C)C(=O)N[C@H](C(=O)N[C@@H](Cc1ccccc1)C(=O)N[C@H](C(=O)N[C@@H](Cc1ccccc1)C(=O)N[C@@H](CCCNC(=N)N)C(=O)N[C@@H](CC(C)C)C(=O)N[C@@H](CCC(=O)O)C(=O)N[C@@H](CCCCN)C(=O)NCC(=O)N[C@@H](CCCNC(=N)N)C(=O)N[C@@H](CCSC)C(=O)N[C@@H](CCSC)C(=O)N[C@@H](CC(=O)O)C(=O)N[C@H](C(=O)N[C@@H](CCCCN)C(=O)N[C@@H](CCCCN)C(N)=O)C(C)C)[C@@H](C)CC)[C@@H](C)O [Peptide 2853823, Myristoyl-LTFIFRLEKGRMMDVKK-NH2] (Myristoyl-LTFIFRLEKGRMMDVKK-NH2) | 80.72 | 81.08 | 82.74 | 3.62 | 22 | 81.52 | 17.28 | 16.97 | 15.49 | 672 | 608 | 626 | 1209 |
| CCCCCCCCCCCCCC(=O)N[C@@H](CC(C)C)C(=O)N[C@H](C(=O)N[C@@H](Cc1ccccc1)C(=O)N[C@@H](CC(C)C)C(=O)N[C@@H](Cc1ccccc1)C(=O)N[C@@H](CCCNC(=N)N)C(=O)N[C@@H](CC(C)C)C(=O)N[C@@H](CCCNC(=N)N)C(=O)N[C@@H](CCCCN)C(=O)NCC(=O)N[C@@H](CCCNC(=N)N)C(=O)N[C@@H](CCSC)C(=O)N[C@@H](CCSC)C(=O)N[C@@H](CC(=O)O)C(=O)N[C@H](C(=O)N[C@@H](CCCCN)C(=O)N[C@@H](CCCCN)C(N)=O)C(C)C)[C@@H](C)O [Peptide 2853812, Myristoyl-LTFLFRLRKGRMMDVKK-NH2] (Myristoyl-LTFLFRLRKGRMMDVKK-NH2) | 80.95 | 86.31 | 86.89 | 16.67 | 14 | 84.72 | 17.07 | 12.28 | 11.76 | 108 | 84 | 87 | 3794 |
| CCCCCCCCCCCCCC(=O)N[C@@H](CC(C)C)C(=O)N[C@H](C(=O)N[C@@H](Cc1ccccc1)C(=O)N[C@H](C(=O)N[C@@H](Cc1ccccc1)C(=O)N[C@@H](CCC(=O)O)C(=O)N[C@@H](CC(C)C)C(=O)N[C@@H](CCCNC(=N)N)C(=O)N[C@@H](CCCCN)C(=O)NCC(=O)N[C@@H](CCCNC(=N)N)C(=O)N[C@@H](CCSC)C(=O)N[C@@H](CCSC)C(=O)N[C@@H](CC(=O)O)C(=O)N[C@H](C(=O)N[C@@H](CCCCN)C(=O)N[C@@H](CCCCN)C(N)=O)C(C)C)[C@@H](C)CC)[C@@H](C)O [Peptide 2853817, Myristoyl-LTFIFELRKGRMMDVKK-NH2] (Myristoyl-LTFIFELRKGRMMDVKK-NH2) | 88.00 | 91.08 | 82.27 | 13.76 | 56 | 87.12 | 10.75 | 8.00 | 15.91 | 511 | 407 | 463 | 899 |
| CCCCCCCCCCCCCC(=O)N[C@@H](CC(C)C)C(=O)N[C@H](C(=O)N[C@@H](Cc1ccccc1)C(=O)N[C@H](C(=O)N[C@@H](Cc1ccccc1)C(=O)N[C@@H](CCCNC(=N)N)C(=O)N[C@@H](CCC(=O)O)C(=O)N[C@@H](CCCNC(=N)N)C(=O)N[C@@H](CCCCN)C(=O)NCC(=O)N[C@@H](CCCNC(=N)N)C(=O)N[C@@H](CCSC)C(=O)N[C@@H](CCSC)C(=O)N[C@@H](CC(=O)O)C(=O)N[C@H](C(=O)N[C@@H](CCCCN)C(=O)N[C@@H](CCCCN)C(N)=O)C(C)C)[C@@H](C)CC)[C@@H](C)O [Peptide 2853821, Myristoyl-LTFIFRERKGRMMDVKK-NH2] (Myristoyl-LTFIFRERKGRMMDVKK-NH2) | 85.54 | 87.64 | 89.89 | 13.00 | 289 | 87.69 | 12.96 | 11.09 | 9.08 | 2756 | 2223 | 2240 | 7421 |
| CCCCCCCCCCCCCC(=O)N[C@@H](CC(C)C)C(=O)N[C@H](C(=O)N[C@@H](Cc1ccccc1)C(=O)N[C@H](C(=O)N[C@@H](Cc1ccccc1)C(=O)N[C@@H](CCCNC(=N)N)C(=O)N[C@@H](CC(C)C)C(=O)N[C@@H](CCCNC(=N)N)C(=O)N[C@@H](CCCCN)C(=O)NCC(=O)N[C@@H](CCCNC(=N)N)C(=O)N[C@@H](CCSC)C(=O)N[C@@H](CCSC)C(=O)N[C@@H](CC(=O)O)C(=O)N[C@H](C(=O)N[C@@H](CCC(=O)O)C(=O)N[C@@H](CCCCN)C(N)=O)C(C)C)[C@@H](C)CC)[C@@H](C)O [Peptide 2853841, Myristoyl-LTFIFRLRKGRMMDVEK-NH2] (Myristoyl-LTFIFRLRKGRMMDVEK-NH2) | 78.06 | 79.59 | 80.30 | 11.40 | 147 | 79.32 | 19.67 | 18.31 | 17.67 | 2072 | 1289 | 1594 | 6480 |
| CCCCCCCCCCCCCC(=O)N[C@@H](CC(C)C)C(=O)N[C@@H](CC(C)C)C(=O)N[C@@H](Cc1ccccc1)C(=O)N[C@H](C(=O)N[C@@H](Cc1ccccc1)C(=O)N[C@@H](CCCNC(=N)N)C(=O)N[C@@H](CC(C)C)C(=O)N[C@@H](CCCNC(=N)N)C(=O)N[C@@H](CCCCN)C(=O)NCC(=O)N[C@@H](CCCNC(=N)N)C(=O)N[C@@H](CCSC)C(=O)N[C@@H](CCSC)C(=O)N[C@@H](CC(=O)O)C(=O)N[C@H](C(=O)N[C@@H](CCCCN)C(=O)N[C@@H](CCCCN)C(N)=O)C(C)C)[C@@H](C)CC [Peptide 2853806, Myristoyl-LLFIFRLRKGRMMDVKK-NH2] (Myristoyl-LLFIFRLRKGRMMDVKK-NH2) | 4.36 | 9.44 | 10.85 | 91.86 | 3361 | 8.22 | 85.71 | 81.25 | 80.00 | 3997 | 3659 | 3696 | 4893 |
| CCCCCCCCCCCCCC(=O)N[C@@H](CC(C)C)C(=O)N[C@H](C(=O)N[C@@H](Cc1ccccc1)C(=O)N[C@H](C(=O)N[C@@H](Cc1ccccc1)C(=O)N[C@@H](CCCNC(=N)N)C(=O)N[C@@H](CC(C)C)C(=O)N[C@@H](CCCNC(=N)N)C(=O)N[C@@H](CCCCN)C(=O)N[C@H](C(=O)N[C@@H](CCCNC(=N)N)C(=O)N[C@@H](CCSC)C(=O)N[C@@H](CCSC)C(=O)N[C@@H](CC(=O)O)C(=O)N[C@H](C(=O)N[C@@H](CCCCN)C(=O)N[C@@H](CCCCN)C(N)=O)C(C)C)C(C)C)[C@@H](C)CC)[C@@H](C)O [Peptide 2853829, Myristoyl-LTFIFRLRKVRMMDVKK-NH2] (Myristoyl-LTFIFRLRKVRMMDVKK-NH2) | 89.50 | 91.73 | 94.67 | 5.88 | 4 | 91.97 | 9.41 | 7.42 | 4.79 | 167 | 68 | 131 | 10000 |
